pIC50: −log10 of the molar value.
Columns and labels:
Estrogen receptor = target: T1, Estrogen receptor (Homo sapiens, UniProt P03372); experiment: Displacement of fluorescent estrogen ligand from recombinant human ERalpha expressed in insect cells incubated for 2 hrs by polarization
T1 sequence (P03372 whole entry): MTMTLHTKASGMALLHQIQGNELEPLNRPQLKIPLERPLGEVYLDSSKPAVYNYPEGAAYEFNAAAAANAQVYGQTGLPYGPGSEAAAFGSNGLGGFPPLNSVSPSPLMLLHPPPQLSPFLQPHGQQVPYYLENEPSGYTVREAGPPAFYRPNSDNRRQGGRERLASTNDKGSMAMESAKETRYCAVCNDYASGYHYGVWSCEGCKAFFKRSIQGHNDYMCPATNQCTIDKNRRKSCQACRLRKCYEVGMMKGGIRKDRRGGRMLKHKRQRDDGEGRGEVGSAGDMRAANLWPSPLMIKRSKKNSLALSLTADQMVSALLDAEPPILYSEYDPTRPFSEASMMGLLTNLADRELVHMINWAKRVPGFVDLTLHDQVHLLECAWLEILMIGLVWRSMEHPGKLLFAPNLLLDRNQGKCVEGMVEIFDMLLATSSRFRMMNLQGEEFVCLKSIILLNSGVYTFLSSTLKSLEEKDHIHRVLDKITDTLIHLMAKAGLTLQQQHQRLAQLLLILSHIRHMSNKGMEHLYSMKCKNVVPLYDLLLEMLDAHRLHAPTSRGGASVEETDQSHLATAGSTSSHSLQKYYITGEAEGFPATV

Ishikawa = experiment: cells; details: Homo sapiens, 48 h
Description: Cytotoxicity in human Ishikawa cells assessed as inhibition of cell growth incubated for 48 hrs by MTT assay

MCF7 = experiment: cells; details: Homo sapiens, MCF7, 48 h
Description: Cytotoxicity in human MCF7 cells assessed as inhibition of cell growth incubated for 48 hrs by MTT assay

HUVEC = experiment: Antiangiogenic activity against HUVEC incubated for 48 hrs by MTT assay; type: functional, cell-based; details: Homo sapiens
[1] = target: Vascular endothelial growth factor receptor 2 (Homo sapiens) (UniProt P35968); experiment: Inhibition of His-tagged human VEGFR2 at 40 uM incubated for 1 hr by HTRF assay
Chain of Vascular endothelial growth factor receptor 2 (Homo sapiens) (P35968 whole entry): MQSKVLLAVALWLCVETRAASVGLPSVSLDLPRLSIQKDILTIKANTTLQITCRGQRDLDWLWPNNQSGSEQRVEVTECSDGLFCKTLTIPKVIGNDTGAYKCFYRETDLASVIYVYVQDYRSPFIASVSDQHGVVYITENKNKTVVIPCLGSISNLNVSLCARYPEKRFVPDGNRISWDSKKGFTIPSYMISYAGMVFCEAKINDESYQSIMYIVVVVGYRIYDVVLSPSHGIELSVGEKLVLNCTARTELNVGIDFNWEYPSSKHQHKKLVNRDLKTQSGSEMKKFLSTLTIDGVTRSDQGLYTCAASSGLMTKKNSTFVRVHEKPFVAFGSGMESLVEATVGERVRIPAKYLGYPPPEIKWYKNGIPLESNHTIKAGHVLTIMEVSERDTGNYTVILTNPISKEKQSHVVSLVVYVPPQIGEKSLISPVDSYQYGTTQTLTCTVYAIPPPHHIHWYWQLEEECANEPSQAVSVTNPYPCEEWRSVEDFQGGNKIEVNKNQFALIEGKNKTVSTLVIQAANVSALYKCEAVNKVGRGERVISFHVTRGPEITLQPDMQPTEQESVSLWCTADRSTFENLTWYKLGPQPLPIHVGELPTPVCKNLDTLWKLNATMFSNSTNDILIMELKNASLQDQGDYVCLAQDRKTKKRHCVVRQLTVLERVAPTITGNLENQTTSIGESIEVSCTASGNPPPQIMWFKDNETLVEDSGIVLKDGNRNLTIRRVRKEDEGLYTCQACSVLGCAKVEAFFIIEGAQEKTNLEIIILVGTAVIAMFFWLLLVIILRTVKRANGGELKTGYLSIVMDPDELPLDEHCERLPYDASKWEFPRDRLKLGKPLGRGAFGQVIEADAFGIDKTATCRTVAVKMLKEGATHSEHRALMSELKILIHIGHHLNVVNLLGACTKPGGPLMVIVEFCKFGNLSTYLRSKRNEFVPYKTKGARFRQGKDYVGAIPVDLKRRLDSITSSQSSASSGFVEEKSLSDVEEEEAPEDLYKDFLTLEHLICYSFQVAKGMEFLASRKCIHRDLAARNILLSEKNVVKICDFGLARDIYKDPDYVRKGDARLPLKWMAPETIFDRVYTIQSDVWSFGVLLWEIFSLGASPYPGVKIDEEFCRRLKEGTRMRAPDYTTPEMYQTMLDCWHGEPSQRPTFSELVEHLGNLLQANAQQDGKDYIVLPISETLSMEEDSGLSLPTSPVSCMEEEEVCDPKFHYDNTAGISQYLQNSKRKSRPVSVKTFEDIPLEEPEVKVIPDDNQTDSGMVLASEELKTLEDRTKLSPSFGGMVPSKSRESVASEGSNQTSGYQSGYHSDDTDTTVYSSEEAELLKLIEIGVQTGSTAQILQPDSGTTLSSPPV

| pIC50 (Estrogen receptor) | pIC50 (Ishikawa) | pIC50 (MCF7) | inhibition [1] [%] | SMILES | pIC50 (HUVEC) |
| --- | --- | --- | --- | --- | --- |
| < 5.00 | < 4.30 | < 4.30 |  | CCN(CC)CCOc1ccc(Oc2c(-c3ccc(O)cc3)c(=O)oc3cc(O)ccc23)cc1 |  |
| < 5.00 | 4.80 | 4.78 |  | CCN(CC)CCOc1ccc(Oc2c(-c3ccc(F)cc3)c(=O)oc3cc(OC)ccc23)cc1 |  |
|  | 4.69 | 4.84 |  | CC/C(=C(\c1ccccc1)c1ccc(OCCN(C)C)cc1)c1ccccc1 [TAMOXIFEN] |  |
|  |  | 4.78 | 95.7 | COc1cc2/c(=N/c3ccc(Br)cc3F)nc[nH]c2cc1OCC1CCN(C)CC1 [VANDETANIB] | 5.17 |
| 5.36 | 4.76 | 4.76 |  | CCN(CC)CCOc1ccc(Nc2c(-c3ccc(F)cc3)c(=O)oc3cc(O)ccc23)cc1 |  |
| 5.07 | 4.43 | 4.38 |  | CN(C)CCOc1ccc(Oc2c(-c3ccc(O)cc3)c(=O)oc3cc(O)ccc23)cc1 |  |
| < 5.00 | 4.55 | 4.49 |  | CN(C)CCOc1ccc(Nc2c(-c3ccc(F)cc3)c(=O)oc3ccccc23)cc1 |  |
| < 5.00 | 4.59 | 4.58 |  | O=c1oc2ccccc2c(Nc2ccc(OCCN3CCCC3)cc2)c1-c1ccc(F)cc1 |  |
| 5.41 | 4.98 | 5.15 | 88.4 | O=c1oc2cc(O)ccc2c(Nc2ccc(OCCN3CCCCC3)cc2)c1-c1ccc(F)cc1 | 5.00 |
| 5.19 | 4.57 | 4.69 |  | O=c1oc2cc(O)ccc2c(Nc2ccc(OCCN3CCCC3)cc2)c1-c1ccc(O)cc1 |  |
| 5.18 | 4.84 | 4.94 | 59.3 | COc1ccc(-c2c(Nc3ccc(OCCN4CCCCC4)cc3)c3ccc(O)cc3oc2=O)cc1 | 4.79 |
| 5.11 | 4.99 | 4.95 | 41.8 | O=c1oc2ccccc2c(Nc2ccc(OCCN3CCCCC3)cc2)c1-c1ccc(F)cc1 | 4.77 |
| < 5.00 | 5.03 | 4.81 |  | CCN(CC)CCOc1ccc(Oc2c(-c3ccc(OC)cc3)c(=O)oc3cc(OC)ccc23)cc1 |  |
| < 5.00 | 4.61 | 4.58 |  | CCN(CC)CCOc1ccc(Nc2c(-c3ccc(F)cc3)c(=O)oc3ccccc23)cc1 |  |
| 5.09 | 4.52 | 4.55 |  | CN(C)CCOc1ccc(Nc2c(-c3ccc(O)cc3)c(=O)oc3cc(O)ccc23)cc1 |  |
| < 5.00 | 4.94 | 4.75 |  | COc1ccc(-c2c(Oc3ccc(OCCN(C)C)cc3)c3ccc(OC)cc3oc2=O)cc1 |  |
| < 5.00 | 4.75 | 4.58 |  | CCN(CC)CCOc1ccc(Nc2c(-c3ccc(F)cc3)c(=O)oc3cc(OC)ccc23)cc1 |  |
| 5.58 | 4.55 | 4.71 | 66.1 | O=c1oc2cc(O)ccc2c(Oc2ccc(OCCN3CCCCC3)cc2)c1-c1ccc(O)cc1 | 4.62 |

Source: ChEMBL document CHEMBL4130448, “Novel SERMs based on 3-aryl-4-aryloxy-2H-chromen-2-one skeleton - A possible way to dual ERα/VEGFR-2 ligands for treatment of breast cancer” (Eur J Med Chem, 2017)
